# Biological target: T1, STAT5b Arg618Ala (Homo sapiens, UniProt P51692, R618A)
# T1 sequence (P51692 1-787 R618A): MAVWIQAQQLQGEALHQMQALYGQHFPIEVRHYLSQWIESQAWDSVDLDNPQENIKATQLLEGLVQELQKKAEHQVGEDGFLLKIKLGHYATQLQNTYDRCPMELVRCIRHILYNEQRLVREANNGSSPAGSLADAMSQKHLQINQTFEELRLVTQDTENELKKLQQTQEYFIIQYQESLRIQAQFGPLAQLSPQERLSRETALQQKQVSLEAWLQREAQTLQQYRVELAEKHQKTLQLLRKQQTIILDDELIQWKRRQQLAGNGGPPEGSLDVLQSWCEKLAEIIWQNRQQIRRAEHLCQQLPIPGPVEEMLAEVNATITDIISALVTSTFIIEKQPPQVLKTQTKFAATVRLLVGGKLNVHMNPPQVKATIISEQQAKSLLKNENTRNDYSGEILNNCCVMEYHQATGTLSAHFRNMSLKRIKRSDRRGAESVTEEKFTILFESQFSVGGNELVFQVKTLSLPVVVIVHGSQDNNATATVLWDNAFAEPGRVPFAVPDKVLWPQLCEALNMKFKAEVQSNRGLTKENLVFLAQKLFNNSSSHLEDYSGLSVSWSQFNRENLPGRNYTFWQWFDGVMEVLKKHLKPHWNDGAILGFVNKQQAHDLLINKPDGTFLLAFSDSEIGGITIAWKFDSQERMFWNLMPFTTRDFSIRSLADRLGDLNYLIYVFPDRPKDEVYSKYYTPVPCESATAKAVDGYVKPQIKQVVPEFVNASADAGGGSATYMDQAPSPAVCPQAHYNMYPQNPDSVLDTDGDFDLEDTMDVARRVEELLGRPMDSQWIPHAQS
# Assay: Isothermal titration calorimetry, STAT5b Arg618Ala
# Type: binding
# Conditions: ITC, 25 °C
compound,measurement,value
"O=C(COc1ccc(C(=O)Nc2ccc(Oc3ccccc3)cc2)cc1)NCc1ccc(OP(=O)(O)O)c(OP(=O)(O)O)c1 [compound 4, 4-((2-(4-((4-phenoxyphenyl)carbamoyl)phenoxy)acetamido)methyl)-1,2-phenylene bis(dihydrogen phosphate)]",Kd,5.6 ± 1.7 µM
